Key:
RBP4 [1] = molecular target: T1, RBP4 (Mus musculus, UniProt Q00724); assay: Blood RBP4-lowering action in C57BL/6J mouse, plasma RBP4 by ELISA; type: in vivo; conditions: mean±SD, n=4 or 5
T1 construct: from tissue; host or cells: plasma of male C57BL/6J mice (Japan Charles River)
Procedure: The blood RBP4-lowering action of the compound of the present invention was evaluated using C57BL/6J mouse.
Male 7- to 10-week-old C57BL/6J mice (Japan Charles River) were acclimation reared under free food ingestion conditions on CE-2 solid feed (CLEA Japan, Inc.) for 4 to 6 days, and randomly grouped (4 or 5 per group). On the day of the test, blood samples were collected from the tail vein, and plasma was separated (0 hr value). Thereafter, a test compound (Example 1, 2, 3, 4, 5, 6, 7 or 8) was orally administered at a dose of 3 mg/kg or 10 mg/kg (solvent: 0.5% methylcellulose solution (10 mL/kg)). At 8 and 24 hr after the compound was administered, blood samples were collected from the tail vein and plasma was separated. A 0.5% methylcellulose solution (10 mL/kg) was orally administered to the control group.
The amount of RBP4 in the collected plasma was measured by the ELISA method. Using rabbit anti-mouse RBP4 polyclonal antibody (Hokudo Co., Ltd.), RBP4 was quantified by the following process. A 96 well ELISA plate was coated with 50 μg/mL antibody (100 μL), and stood at 4° C. overnight or at room temperature for 2 hr. After blocking with BlockAce (Dainippon Pharmaceutical Co., Ltd.), 100 μL of mouse RBP4 or sample was added and the plate was stood at room temperature for 2 hr, washed with PBS-0.5% Tween20, added with HRP-labeled anti-RBP4 antibody (prepared by labeling RBP4 polyclonal antibody (Hokudo Co., Ltd.) with HRP (DOJINDO LABORATORIES)) (100 μL), and stood at room temperature for 1 hr. After washing, TMB (Sigma) was added at room temperature for 20 min to allow for color development. The reaction was quenched with 2N sulfuric acid and the absorbance at A450 nm was measured by a platereader. Variation from the initial value of each individual was taken as the relative value to the control group (initial value/control value, %) at each time point. The results are shown below in mean±standard deviation (n=4 or 5).

[2] = system: A2E in the eyeball of ABCA4 KO mouse; assay: Suppression of A2E accumulation in the eyeball of ABCA4 KO mouse, A2E by HPLC; type: in vivo; conditions: 8 or 12 weeks
Procedure: The suppressive action for accumulation of retinoid metabolite bis-retinoid N-retinylidene-N-retinylethanolamine (A2E) in the eyeball, of the compound of the present invention, was evaluated using ATP-binding cassette A4 knockout (ABCA4 KO) mouse. A2E is the major constituent component of Lipofuscin in the eyeball, and is involved in the onset and pathology progression in atrophic age-related macular degeneration and Stargardt's disease. ABCA4 KO mouse was confirmed to show remarkable accumulation of A2E, Lipofuscin along with aging, and is known as an animal model of atrophic age-related macular degeneration and Stargardt's disease.
8-Week-old male ABCA4 KO mice were randomly grouped, and 0.5% methylcellulose solution was orally administered to the control group, and 0.5% methylcellulose suspension of a compound at a dose shown in the following Table was orally administered to the test compound group, each once per day at 10 mL/kg. Each group contained 6 or 7 mice. After repetitive administration for 8 or 12 weeks, eyeball was isolated under anesthesia.
In the eyeball, A2E was measured by the HPLC method. A2E reference standard was synthesized from all-trans retinal, ethanolamine in acetic acid-added ethanol. First, 0.3 mL of PBS and zirconia beads were added to the eyeball, and homogenate was prepared using Mixer Mill MM 300 (QIAGEN). A chloroform:methanol (2:1) solution (0.8 mL) was added and the mixture was stirred for […]. The lower layer was separately taken in a different tube, the chloroform:methanol (2:1) solution (0.6 mL) was further added and the mixture was stirred for 5 min. The lower layer was combined with one separated earlier, and dried to solidness by blowing nitrogen gas. 0.05 mL of 85% acetonitrile solution was added and the mixture was stirred to give a measurement sample. For HPLC, Alliance e2695 and Photo diode array 2998 (PDA) (Waters) were used, and Empower 2 was used as an analysis software. The column used was Atlantis dC18 (3 μm, 3.9×150 mm) (Waters), and the column temperature was set to 40° C. […] Quantification was performed at ultraviolet absorbance at 440 nm by PDA.

RBP4 [3] = molecular target: T2, RBP4 (Homo sapiens, UniProt P02753); assay: Binding assay by Retinol-RBP4-TTR ELISA; design: the culture supernatant containing secreted hRBP4-His was recovered; made in house; host or cells: FreeStyle 293 expression system (Invitrogen), secreted into the culture supernatant; conditions: 10 μM compound; retinol 50 nM; His-tagged human RBP4, biotinylated human TTR; read-out: human RBP4 binding inhibitory activity (% at 10 μM)
Procedure: Using the Retinol-RBP4-TTR ELISA system shown below, the action of the compound of the present invention to inhibit the binding of RBP4 and retinol and TTR was evaluated.
1F: Binding Assay by Retinol-RBP4-TTR ELISA
This ELISA system detects a complex with RBP4 and TTR based on the retinol dependent binding of RBP4 to TTR.
The His-tagged human RBP4 used was prepared in the above-mentioned 1C.
The biotinylated human TTR used was prepared in the above-mentioned 1E.
Streptavidin (20 μl) (10 μg/ml Streptavidin type II (Wako Pure Chemical Industries, Ltd.), 10 mM Tris-HCl (pH 7.5), 10 mM NaCl) was added to a 384 well blackplate (Nunc MaxiSorp, Thermo Fisher Scientific Inc.), and the plate was centrifuged (1000 rpm, 1 min) and coated at 4° C. overnight. The plate was washed twice with PBST (PBS, 0.05% Tween 20, 100 μl/well), and blocked with 25% Block Ace (Snow Brand Milk Products Co., Ltd., PBS, 100 μl/well). The plate was subjected to centrifugation (1000 rpm, 1 min), and incubated at room temperature for 4 hr or 4° C. overnight. The plate was washed twice with PBST (PBS, 0.05% Tween 20, 100 μl/well), and biotinylated human TTR (stock solution concentration 1.0 mg/ml) diluted 750-fold with PBST was added at […]. The plate was subjected to centrifugation (1000 rpm, 1 min), and further stood at room temperature for 1.5 hr or 4° C. overnight. The plate was washed 3 times with PBST (100 μl/well), and His-tagged human RBP4 (stock solution concentration 1.28 mg/ml) diluted 4000-fold with a reaction buffer (50 mM Tris-HCl, 150 mM NaCl, 0.005% Tween 20, 1 mM DTT, 0.1% BSA) was added at 10 μl/well. The dilution of the compound (200-fold concentration) was prepared with DMSO, and 1.6 μl each was added to a reaction buffer (320 μl) containing retinol (50 nM) (Sigma-Aldrich Co.). A reaction buffer (320 μl) containing retinol and added with DMSO was used as a positive control, and a reaction buffer (320 μl) not containing retinol and added with DMSO was used as a negative control. A mixed solution of retinol and the compound was added to the plate at 15 μl/well. The plate was stirred in a plate mixer, centrifuged (1000 rpm, 1 min), and reacted at room temperature for 2 hr. Anti-His HRP-conjugated antibody (QIAGEN) solution diluted with a reaction buffer was added at 10 μl/well, centrifuged (1000 rpm, 1 min), and reacted at room temperature for 30 min. The plate was washed 3 times with PBST (100 μl/well), SuperSignal ELISA Femto Maximum Sensitivity Substrate reagent (PIERCE, Thermo Fisher Scientific Inc.) was added at 30 μl/well, and the luminescence was measured by a plate reader (Envision).
The binding inhibitory activity of the compound was determined by 100×(positive control value−test compound value)/(positive control value−negative control value).

RBP4 [4] = molecular target: T2, RBP4; conditions: consequently inhibits formation of a complex with TTR; cited from earlier work
RBP4 [5] = conditions: administration to an animal; cited from earlier work

O=C(O)COc1ccc(-c2cc(C(F)(F)F)cc(C(F)(F)F)c2)nc1 [Example 2, ((6-(3,5-bis(trifluoromethyl)phenyl)pyridin-3-yl)oxy)acetic acid]
RBP4 (initial value/control value %) 8 hr later (RBP4 [1]; 10 mg/kg single oral dose): 23.93 ± 5.84% | RBP4 (initial value/control value %) 24 hr later (RBP4 [1]; 10 mg/kg single oral dose): 64.87 ± 16.79% | A2E (% of control value) ([2]; 10 mg/kg oral once per day): 77.63 ± 9.06 % of control value | inhibition at 10 µM (RBP4 [3]): 99%

CCOC(=O)COc1cnc(-c2cc(C(F)(F)F)cc(C(F)(F)F)c2)nc1 [Example 6, ethyl 2-((2-(3,5-bis(trifluoromethyl)phenyl)pyrimidin-5-yl)oxy)acetate]
RBP4 (initial value/control value %) 8 hr later (RBP4 [1]; 10 mg/kg single oral dose): 58.17 ± 8.61% | RBP4 (initial value/control value %) 24 hr later (RBP4 [1]; 10 mg/kg single oral dose): 79.70 ± 5.22%

CC1=C(/C=C/C(C)=C/C=C/C(C)=C/C(=O)Nc2ccc(O)cc2)C(C)(C)CCC1 [fenretinide, 4-hydroxy(phenyl)retinamide]
binding of RBP4 and retinol (RBP4 [4]): inhibits binding of RBP4 and retinol | blood RBP4 (RBP4 [5]): induces lowering of blood RBP4

COC(=O)COc1ccc(-c2cc(C(F)(F)F)cc(C(F)(F)F)c2)nc1 [Example 7, methyl 2-((6-(3,5-bis(trifluoromethyl)phenyl)pyridin-3-yl)oxy)acetate]
RBP4 (initial value/control value %) 8 hr later (RBP4 [1]; 10 mg/kg single oral dose): 43.66 ± 4.92% | RBP4 (initial value/control value %) 24 hr later (RBP4 [1]; 10 mg/kg single oral dose): 71.75 ± 8.77%

O=C(O)COc1nc(-c2cc(C(F)(F)F)cc(C(F)(F)F)c2)co1 [Example 4, ((4-(3,5-bis(trifluoromethyl)phenyl)-1,3-oxazol-2-yl)oxy)acetic acid]
RBP4 (initial value/control value %) 8 hr later (RBP4 [1]; 3 mg/kg single oral dose): 19.86 ± 11.85% | RBP4 (initial value/control value %) 24 hr later (RBP4 [1]; 3 mg/kg single oral dose): 54.29 ± 19.15% | A2E (% of control value) ([2]; 1 mg/kg oral once per day): 79.47 ± 14.53 % of control value | inhibition at 10 µM (RBP4 [3]): 100%

O=C(O)COc1ccn(-c2cc(C(F)(F)F)cc(C(F)(F)F)c2)n1 [Example 5, ((1-(3,5-bis(trifluoromethyl)phenyl)-1H-pyrazol-3-yl)oxy)acetic acid]
RBP4 (initial value/control value %) 8 hr later (RBP4 [1]; 3 mg/kg single oral dose): 32.14 ± 6.82% | RBP4 (initial value/control value %) 24 hr later (RBP4 [1]; 3 mg/kg single oral dose): 36.20 ± 1.87% | A2E (% of control value) ([2]; 3 mg/kg oral once per day): 59.10 ± 10.33 % of control value | inhibition at 10 µM (RBP4 [3]): 100%

O=C(O)CCn1ccc(-c2cc(C(F)(F)F)cc(C(F)(F)F)c2)n1 [Example 3, 3-(3-(3,5-bis(trifluoromethyl)phenyl)-1H-pyrazol-1-yl)propanoic acid]
RBP4 (initial value/control value %) 8 hr later (RBP4 [1]; 10 mg/kg single oral dose): 20.70 ± 1.55% | RBP4 (initial value/control value %) 24 hr later (RBP4 [1]; 10 mg/kg single oral dose): 49.64 ± 10.48% | A2E (% of control value) ([2]; 10 mg/kg oral once per day): 73.90 ± 15.58 % of control value | inhibition at 10 µM (RBP4 [3]): 100%

O=C(O)COc1cnc(-c2cc(C(F)(F)F)cc(C(F)(F)F)c2)nc1 [Example 1, ((2-(3,5-bis(trifluoromethyl)phenyl)pyrimidin-5-yl)oxy)acetic acid]
RBP4 (initial value/control value %) 8 hr later (RBP4 [1]; 10 mg/kg single oral dose): 37.25 ± 11.45% | RBP4 (initial value/control value %) 24 hr later (RBP4 [1]; 10 mg/kg single oral dose): 61.81 ± 14.79% | inhibition at 10 µM (RBP4 [3]): 98%
